Measured values reported in patent US11866431B2, “Bicyclic compounds” (Vivace Therapeutics, Inc., priority 2018, dated 2024).

The compounds below were run on 8XTBD luciferase reporter (YAP reporter) in HEK293T cells (assay: YAP Reporter Assay). Conditions: Homo sapiens, HEK-293T; HEK293T cells stably transfected with 8XTBD luciferase reporter and pRLTK; 24-hr incubation; top concentration 3 μM; read-out: Firefly Luciferase IC50.
Assay type: cell-based
Procedure: HEK293T cells stably transfected with 8XTBD luciferase reporter and pRLTK in 384-well plates were treated with the test compounds, starting from 3 μM (final concentration in assay plate), 1:3 dilution, and 10 points in quadruplicates. Post 24-hr incubation with compounds at 37° C. and 5% CO2, cells were lysed and 8XTBD-driven firefly luciferase and control TK-driven renilla luciferase activities were measured using Promega Dual-Luciferase Reporter Assay System.
Reagents: The reagents used for this study are: DMEM: Invitrogen #11960077, Dual-Glo Luciferase Assay System: Promega-E2980, Puromycin Dihydrochloride: Invitrogen-A1113803, 384-well plate: PerkinElmer-6007480, L-GLUTAMINE: Invitrogen-25030164, Hygromycin B: Invitrogen-10687010, and Penicillin-Streptomycin: Merk-TMS-AB2-C
Media: The media used for this assay were: Culture Medium: DMEM+1 ug/mL puromycin+200 ug/mL hygromycin (with 10% FBS+1 mM L-glutamine); and Assay Medium: DMEM (with 10% FBS+1 mM L-glutamine+1×P/S).
Cell Plating: The appropriate media was warmed at 37° C. by water bath: Culture Medium, Assay Medium, 1*D-PBS, 0.05% trypsin-EDTA. The cells were trypsinized after removing all media, then washed with 1*sterile D-PBS and then with 2 ml 0.05% trypsin-EDTA. The cells were then incubated at RT for one minute. Then 10 ml/75 cm2 flask Assay Medium was added to each flask. Using a 10 ml pipette, the cells were then gently resuspended in the media, until the clumps completely disappeared. The cells were then transferred into 50 ml centrifuge tubes and were centrifuged at 800 rpm for 5 mins. The medium was removed and the cells were resuspended with Assay Medium. An aliquot of cells was used to count the cell density (cells/ml). The cell suspension was then diluted with Assay Medium to a concentration of 6×10^4 cells/ml. 50 ul cells suspension was then plated to 384-well plate (PerkinElmer-6007480), 3×10^3 cells/well and the cells were incubated in an incubator at 37° C. 5% CO2.
Compound Treatment: In the afternoon (incubation of the plate with 3-4 hrs), the test compounds were added by Echo, starting from 3 uM (final concentration in the assay plate), 1:3 dilution, 10 points, quadruplicates. The plate was placed at 37° C. 5% CO2 incubator for 24 hrs.
Detection: The Dual-Glo Luciferase Reagent was prepared by transferring the contents of one bottle of Dual-Glo Luciferase Buffer to one bottle of Dual-Glo Luciferase Substrate to create the Dual-Glo Luciferase Reagent. Mixing was performed by inversion until the substrate was thoroughly dissolved. After mixing, the reagent was aliquoted into 15 ml tubes. In the afternoon (24 hrs post compound treatment), the DMEM+ medium in the 384 well plates were aspirated by Microplate Washer.
Measuring firefly luciferase activity: 20 ul Dual-Glo Luciferase Reagent was added to the 384-well plates. The plates were protected from light to prevent interference with the assay. The plates were shaken for 1 min followed centrifuging plates at 1000 rpm for 30 seconds. After waiting at least 10 minutes, the firefly luminescence was measured by Envision.
Measuring renilla luciferase activity: 20 ul Stop-Glo Reagent was added to the 384-well plates. The plates were shaken for 1 min and then centrifuged at 1000 rpm for 30 seconds. After waiting at least 10 minutes, the renilla luminescence was measured by Envision.
Compound IC50 and maximum inhibition on the firefly luciferase and renilla luciferase activities were reported separately.

Structure (SMILES) | IC50 [nM]
O=C(NCCC=CCO)c1ccc2c(-c3ccc(C(F)(F)F)cc3)cccc2c1 (stereo in doubt) [Compound 245, N-[(E)-5-hydroxypent-3-enyl]-5-[4-(trifluoromethyl)phenyl]naphthalene-2-carboxamide] | 100 to 1000
CC(C)NC(=O)c1ccc2c(-c3ccc(C(F)(F)F)cc3)cccc2c1 [Compound 1, N-isopropyl-5-(4-(trifluoromethyl)phenyl)-2-naphthamide] | < 100
CS(=O)(=O)NC(=O)c1ccc2c(-c3ccc(C(F)(F)F)cc3)cccc2c1 [Compound 2, N-(methylsulfonyl)-5-(4-(trifluoromethyl)phenyl)-2-naphthamide] | < 100
CNS(=O)(=O)c1ccc2c(-c3ccc(C(F)(F)F)cc3)cccc2c1 [Compound 3, N-methyl-5-(4-(trifluoromethyl)phenyl)naphthalene-2-sulfonamide] | < 100
CC(C)NC(=O)c1cnc2c(-c3ccc(C(F)(F)F)cc3)cccc2c1 [Compound 4, N-isopropyl-8-(4-(trifluoromethyl)phenyl)quinoline-3-carboxamide] | < 100
CCNS(=O)(=O)c1ccc2c(-c3ccc(C(F)(F)F)cc3)cccc2c1 [Compound 5, N-ethyl-5-(4-(trifluoromethyl)phenyl)naphthalene-2-sulfonamide] | < 100
CC(C)NS(=O)(=O)c1ccc2c(-c3ccc(C(F)(F)F)cc3)cccc2c1 [Compound 6, N-isopropyl-5-(4-(trifluoromethyl)phenyl)naphthalene-2-sulfonamide] | 100 to 1000
CC(C)NC(=O)c1ccc2c(-c3ccc(C(F)(F)F)cc3)ccnc2c1 [Compound 7, N-isopropyl-4-[4-(trifluoromethyl)phenyl]quinoline-7-carboxamide] | 100 to 1000
CC(C)NC(=O)c1ccc2c(-c3ccc(C(F)(F)F)cc3)ccc(Br)c2c1 [Compound 8, 8-bromo-N-isopropyl-5-(4-(trifluoromethyl)phenyl)-2-naphthamide] | < 100
COC(=O)c1ccc2c(-c3ccc(C(F)(F)F)cc3)nccc2c1 [Compound 9, Methyl 1-[4-(trifluoromethyl)phenyl]isoquinoline-6-carboxylate] | 100 to 1000
COC(=O)c1ccc2c(-c3ccc(C(F)(F)F)cc3)cnc(Cl)c2c1 [Compound 10, Methyl 1-chloro-4-[4-(trifluoromethyl)phenyl]isoquinoline-7-carboxylate] | 1000 to 3000
CC(C)NC(=O)c1ccc2c(-c3ccc(C(F)(F)F)cc3)nccc2c1 [Compound 11, N-isopropyl-1-[4-(trifluoromethyl)phenyl]isoquinoline-6-carboxamide] | < 100
CC(C)NC(=O)c1ccc2c(-c3ccc(C(F)(F)F)cc3)ccc(NC(=O)OC(C)(C)C)c2c1 [Compound 12, Tert-Butyl (7-(isopropylcarbamoyl)-4-(4-(trifluoromethyl)phenyl)naphthalen-1-yl)carbamate] | 100 to 1000
CC(C)NC(=O)c1ccc2c(-c3ccc(C(F)(F)F)cc3)ccc(Cl)c2c1 [Compound 13, 8-chloro-N-isopropyl-5-(4-(trifluoromethyl)phenyl)-2-naphthamide] | < 100
COC(=O)c1ccc2c(-c3ccc(C(F)(F)F)cc3)cnc(O)c2c1 [Compound 14, Methyl 1-oxo-4-[4-(trifluoromethyl)phenyl]-2H-isoquinoline-7-carboxylate] | < 100
COC(=O)c1ccc2c(-c3ccc(C(F)(F)F)cc3)cn(C)c(=O)c2c1 [Compound 15, Methyl 2-methyl-1-oxo-4-[4-(trifluoromethyl)phenyl]isoquinoline-7-carboxylate] | 100 to 1000
CC(C)NC(=O)c1ccc2c(-c3ccc(C(F)(F)F)cc3)ccc(N)c2c1 [Compound 16, 8-amino-N-isopropyl-5-(4-(trifluoromethyl)phenyl)-2-naphthamide] | < 100

Structure (SMILES) | IC50 [nM]
CC(=O)Nc1ccc(-c2ccc(C(F)(F)F)cc2)c2ccc(C(=O)NC(C)C)cc12 [Compound 17, 8-acetamido-N-isopropyl-5-(4-(trifluoromethyl)phenyl)-2-naphthamide] | < 100
CSc1ccc(-c2ccc(C(F)(F)F)cc2)c2ccc(C(=O)NC(C)C)cc12 [Compound 18, N-isopropyl-8-methylsulfanyl-5-[4-(trifluoromethyl)phenyl]naphthalene-2-carboxamide] | < 100
Cc1ccc(-c2ccc(C(F)(F)F)cc2)c2ccc(C(=O)NC(C)C)cc12 [Compound 19, N-isopropyl-8-methyl-5-[4-(trifluoromethyl)phenyl]naphthalene-2-carboxamide] | < 100
C#Cc1ccc(-c2ccc(C(F)(F)F)cc2)c2ccc(C(=O)NC(C)C)cc12 [Compound 20, 8-ethynyl-N-isopropyl-5-[4-(trifluoromethyl)phenyl]naphthalene-2-carboxamide] | < 100
CCc1ccc(-c2ccc(C(F)(F)F)cc2)c2ccc(C(=O)NC(C)C)cc12 [Compound 21, 8-ethyl-N-isopropyl-5-[4-(trifluoromethyl)phenyl]naphthalene-2-carboxamide] | < 100
CC(C)NC(=O)c1ccc2c(-c3ccc(C(F)(F)F)cc3)ccc(C3CC3)c2c1 [Compound 22, 8-cyclopropyl-N-isopropyl-5-(4-(trifluoromethyl)phenyl)-2-naphthamide] | < 100
CC(C)NC(=O)c1ccc2c(-c3ccc(C(F)(F)F)cc3)ccc(NS(C)(=O)=O)c2c1 [Compound 23, N-isopropyl-8-(methylsulfonamido)-5-(4-(trifluoromethyl)phenyl)-2-naphthamide] | < 100
COC(=O)c1ccc2c(-c3ccc(C(F)(F)F)cc3)cncc2c1 [Compound 24, Methyl 4-[4-(trifluoromethyl)phenyl]isoquinoline-7-carboxylate] | < 100
CC(C)NC(=O)c1ccc2c(-c3ccc(C(F)(F)F)cc3)cncc2c1 [Compound 25, N-isopropyl-4-[4-(trifluoromethyl)phenyl]isoquinoline-7-carboxamide] | 100 to 1000
CC(C)NC(=O)c1ccc2c(-c3ccc(C(F)(F)F)cc3)cn(C)c(=O)c2c1 [Compound 26, N-isopropyl-2-methyl-1-oxo-4-(4-(trifluoromethyl)phenyl)-1,2-dihydroisoquinoline-7-carboxamide] | < 100
CC(C)NC(=O)c1ccc2c(-c3ccc(C(F)(F)F)cc3)ccc([S+](C)[O-])c2c1 (stereo not shown) [Compound 27, N-isopropyl-8-methylsulfinyl-5-[4-(trifluoromethyl)phenyl]naphthalene-2-carboxamide] | 100 to 1000
CC(C)NC(=O)c1ccc2c(-c3ccc(C(F)(F)F)cc3)ccc(S(C)(=O)=O)c2c1 [Compound 28, N-isopropyl-8-methylsulfonyl-5-[4-(trifluoromethyl)phenyl]naphthalene-2-carboxamide] | 1000 to 3000
NS(=O)(=O)NC(=O)c1ccc2c(-c3ccc(C(F)(F)F)cc3)cccc2c1 [Compound 29, N-sulfamoyl-5-(4-(trifluoromethyl)phenyl)-2-naphthamide] | 100 to 1000
CC(=O)N(C)c1ccc(-c2ccc(C(F)(F)F)cc2)c2ccc(C(=O)NC(C)C)cc12 [Compound 30, N-isopropyl-8-(N-methylacetamido)-5-(4-(trifluoromethyl)phenyl)-2-naphthamide] | 100 to 1000
CC(C)NC(=O)c1ccc2c(-c3ccc(C(F)(F)F)cc3)cc(Br)c(N)c2c1 [Compound 31, 8-amino-7-bromo-N-isopropyl-5-(4-(trifluoromethyl)phenyl)-2-naphthamide] | < 100
CC(C)NC(=O)c1ccc2c(-c3ccc(C(F)(F)F)cc3)cc(Br)cc2c1 [Compound 32, 7-bromo-N-isopropyl-5-[4-(trifluoromethyl)phenyl]naphthalene-2-carboxamide] | < 100
CC(C)NC(=O)c1ccc2c(-c3ccc(C(F)(F)F)cc3)cc(Cl)c(N)c2c1 [Compound 33, 8-amino-7-chloro-N-isopropyl-5-(4-(trifluoromethyl)phenyl)-2-naphthamide] | < 100
